These results are taken from patent US20090312408A1, “ISOFLAVAN AND ISOFLAVENE COMPOUNDS AND THEIR USE AS ANGIOGENESIS INHIBITORS” (priority 2006, published 2009).

For data set [1], the system named is Bovine Microvascular Endothelial (BME) cells. As to the kind of experiment: In vitro angiogenesis assay (tube formation in 3D collagen gel). Format: cell-based. As to conditions: 50 μM, pictures after 7 days. As to the method:
Collagen was solubilized from rat tail tendons essentially as described by Strom and Michalopoulos, Methods Enzymol 82: 544-555, 1982 and Dharmsathaphorn and Madara, Methods Enzymol. 192: 354-389, 1990. In order to prepare collagen gel, 8 volumes of a cold collagen solution from rat tail tendons (approximately 1.5 mg/ml) were quickly mixed with 1 volume of 10× minimal essential medium (MEM) without bicarbonate and 1 volume of sodium bicarbonate (11.76 mg/ml) on ice. F47 or DMSO was added at final concentration of 50 μM and the mixture was quickly dispensed into 2.00 cm^2-tissue culture wells and it was polymerized at 37° C. for 10 min (Montesano et al., J. Cell Biol. 97: 1648-1652, 1983). Bovine Microvascular Endothelial (BME) cells were seeded onto collagen gel in 500 μl of D-MEM supplemented with 10% Donkey Calf Serum (DCS), 1% glutamine and 1% penicillin-streptomycin, containing F47 (50 μM) or DMSO (control sample). The cells were left at 37° C. for 90-120 min to be attached. Following that, the medium was removed and a second layer of 200 μl of collagen mixture, containing F47 (50 μM) or DMSO, was added on the top. Again, collagen was allowed to polymerize at 37° C. for 10 min. Finally, 500 μl of medium, containing either F47 (50 μM) or DMSO, was added on the top. The ultimate layer of the medium was changed every 2 days renewing thus F47 or DMSO. Pictures were taken after 7 days. […]

The test system of the next data set is HUVEC. As to the kind of experiment: VEGF-induced endothelial cell proliferation, analysis by Ki67 immunostaining. Conditions: Homo sapiens, HUVECs, VEGF 50 ng/ml, 6 hr, read-out: half-maximal concentration, inhibition of VEGF-induced proliferation of endothelial cells. It counts as cell-based. As to the method:
(§1) Human endothelial cells from umbilical vein (HUVEC) were plated on dishes pre-coated with rat collagen type I (Becton Dickinson Biosciences) and cultured in M199 medium supplemented with 20% fetal calf serum, FCS, 50 ng/ml endothelial cell growth supplement (ECGS, Sigma), heparin […] (Sigma) and 1% penicillin-streptomycin. All media and sera for cell culture were purchased from Invitrogen and were endotoxin-free. F47 was tested for endotoxin content using the QCL1000 kit from BioWhittaker, Inc. Stock solutions of F47 were resuspended in DMSO/ethanol, 1/1 by volume, and added directly to the culture medium. Cells not receiving F47 were incubated in the corresponding volume of DMSO/ethanol.
HUVECs (3×10^4) were grown on cover slips and serum starved in a medium containing 5% FCS for 12 hr. Cells were induced with VEGF (50 ng/ml) in the presence or absence of F47 (10 μM) for 6 hr, fixed in 3.7% paraformaldehyde and processed for indirect immunofluorescence using an anti-Ki67 antibody. Cells were counterstained with Hoechst 33342. […] Ki67 antigen is only expressed in active phases of the cell cycle, but not in G0 phase and the percentage of the Ki67-positive cells represents the proliferating population.
One of the main angiogenic endothelial cell responses is proliferation, in which the effect of F47 was examined. […]

In the next data set the test system is HUVECs. As to the kind of experiment: Endothelial cell survival/apoptosis, FACS analysis (sub-G1 DNA content). It counts as cell-based, Human. As to conditions: serum-starved HUVECs (5% FCS), F47 10 μM, 15 hr. As to the method:
as §1
For analysis by flow cytometry, HUVECs were serum starved for 15 hr in medium containing 5% FCS and treated with VEGF (50 ng/ml) in the presence or absence of F47 (10 μM for the same period of time). At the end of the incubation time, floating and adherent cells were collected in ice-cold PBS, stained with propidium iodine using the CycleTEST PLUS DNA Reagent kit (Becton Dickinson Biosciences) and processed for flow cytometric analysis using a Becton Dickinson Fluorescence Activated Cell Scanner (FACS). The percentage of cells with a sub-G1 DNA content was considered as the cell population that had undergone apoptosis. […]

For the next data set, the system named is BBCE cells. As to the kind of experiment: bFGF-induced endothelial cell proliferation, analysis by cell counting. Conditions: 120 h, 2.5 ng/ml bFGF, cell counting on day 5 or 6, read-out: half-maximal concentration, inhibition of bFGF-induced proliferation of endothelial cells. Format: cell-based. Here is the method:
BBCE cells were seeded (day 0) in 12-well tissue culture plates at a density of 1250 cells/cm^2 (5000 cells/ml/well) and the following day (day 1), wells received 5 μl of the compound dilutions to be tested and 2.5 ng/ml bFGF. This treatment was repeated after two days (day 3). On day 5 or 6, cells in duplicate wells were trypsinized and counted using a Coulter particle counter. Ten dilutions were tested for each compound.
One of the main angiogenic endothelial cell responses is proliferation, in which the effect of F47 was examined. The effect of F47 on bFGF-induced endothelial cell proliferation was studied using cell counting, the results being shown in FIG. 1. […] F47 inhibited both bFGF- and VEGF-induced proliferation of endothelial cells with half-maximal concentrations of 3 and <1 μM, respectively.

The next data set deals with A-431 tumors. The data set can be described thus: A-431 murine tumor xenograft model. Format: in vivo, BALB/c nude mice. Here is the method:
To assess the in vivo antiangiogenic/antitumor activity of F47, female immunodeficient mice (5-8 week-old BALB/c nude mice, Charles River, Milan, Italy) were s.c. inoculated in the right flank with 10^7 A-431 cells in a volume of 50 μl (Morbidelli et al., Clinic Cancer Res, 2003; 9(14): 5358-69). After 9 days, when tumors reached a volume of 170 mm^3, animals were randomly assigned to 2 different experimental protocols (9-10 mice per group). Peritumor treatment with F47 (5 μg/day/mice) or vehicle started. The local peritumor treatment was performed at the dose of 5 μg/50 μl/mouse/day. The vehicle containing the same concentrations of solvents (1% ethanol+1% DMSO) was used as control. Daily treatment was performed for 10 consecutive days. Serial caliper measurements of perpendicular diameters were used to calculate tumor volume using the following formula: (shortest diameter×longest diameter×thickness of the tumor in mm). Data are reported as tumor volume in mm^3. Experiments have been performed in accordance with the guidelines of the European Economic Community for animal care and welfare (EEC Law No. 86/609) and National Ethical Committee. Animals were observed daily for signs of cytotoxicity and were sacrified by CO2 asphyxiation.
At day 10 animals were sacrificed and each tumor was immediately frozen in liquid nitrogen. Seven-μm-thick cryostat sections were stained with hematoxylin and eosin and adjacent sections were used for immunohistochemical staining with the anti-ED-B monoclonal antibody after fixation in absolute cold acetone.
FIG. 5 refers to the antitumor activity of F47 evaluated in nude mice inoculated with A-431 cells and treated after the onset of tumor growth (day 9 from inoculation, >150 mm^3 tumor volume). Peri-tumor treatment with F47 (5 μg/mice/day) or vehicle continued for 10 days. Data are reported as tumor volume in mm^3 (means±SEM of […]).

Some results are limits rather than exact numbers.

For the compound `COc1cc2c(cc1O)OCC(c1ccc(O)cc1)C2` (centres unmarked) [F47, 7,4′-dihydroxy-6-methoxy-isoflavan], in data set [1], the “in vitro angiogenesis (tube formation) in 3D collagen cultures” value is “strongly inhibited”. For the same compound, the IC50 in the data set on HUVEC was below 1000 nM; in the data set with BBCE cells, 3000 nM. Further, in the data set on HUVECs (VEGF 50 ng/ml), the “effect on VEGF-induced endothelial cell survival” value is on record as “did not inhibit”. Besides, the “level of apoptosis of serum-deprived HUVECs (toxic or apoptotic effects of the compound itself)” value with HUVECs (no VEGF) is “did not further increase”. This compound also returned a survival of mice with A-431 tumors (day 8, peritumor 5 μg/day/mice) of 78%. Besides, the “presence of tumor vasculature (anti-ED-B antibody staining of B-fibronectin)” value in the data set with A-431 tumors (day 10, peritumor 5 μg/day, tumor sections) is recorded as “absent”. Further, the “tumors smaller than in control mice (tumor volume)” value in the data set on A-431 tumors (peritumor 5 μg/day/mice, P<0.01 vs vehicle group at day 6 and 8, 4 animals/group) was “approximately 50%”.
